Values quoted from earlier work as cited in US6469171B1, “Syntheses of a variety of lamellarin compounds and analogues” (The Australian National University, priority 1998, dated 2002).

Assays:
fertilised sea urchin = fertilised sea urchin assay
P388 cell line = P388 cell line in culture
A549 cell line = A549 cell line in culture
lung cancer cell lines = settings: by acting as a Type IV microtubule poison

Compound	inhibition of cell division (fertilised sea urchin)	cytotoxicity (P388 cell line)	cytotoxicity (A549 cell line)	activity in lung cancer cell lines (lung cancer cell lines)
COc1cc(-c2c3c4cc(OC)c(O)cc4oc(=O)c3n3ccc4cc(O)c(OC)cc4c23)ccc1O [Lamellarin D]	inhibition of cell division	–	–	–
Lamellarin K	–	significant cytoxicity	significant cytoxicity	–
COc1ccc(-c2c3c4cc(OC)c(O)cc4oc(=O)c3n3ccc4cc(O)c(OC)cc4c23)cc1O [Lamellarin N]	–	–	–	activity
Lamellarin I	–	significant cytoxicity	significant cytoxicity	–
COc1ccc(-c2c3n(c4c(=O)oc5cc(O)c(OC)cc5c24)CCc2cc(O)c(OC)cc2-3)cc1O [Lamellarin L]	–	significant cytoxicity	significant cytoxicity	–
COc1cc(-c2c3n(c4c(=O)oc5cc(O)c(OC)cc5c24)CCc2c-3cc(OC)c(OC)c2OC)ccc1O [Lamellarin C]	inhibition of cell division	–	–	–
